Data: patent US9346798B2, “Dihydrobenzoxazine and tetrahydroquinoxaline sodium channel inhibitors” (AMGEN INC., priority 2012, dated 2016)

Experiments:
Assay type in all cases: cell-based
Nav 1.7 [1] = molecular target: T1, Nav 1.7 (Homo sapiens (Human), UniProt Q15858); experiment: Nav 1.7 in vitro assay, IonWorks Quattro (IWQ) population patch-clamp; conditions: HEK 293 cells stably transfected with Nav 1.7; 26th pulse to -20 mV
Nav 1.7 [2] = molecular target: T1, Nav 1.7; experiment: Nav 1.7 in vitro PX assay, PatchXpress whole cell voltage clamp; conditions: HEK 293 cells stably transfected with human Nav1.7; partially inactivated state (20 to 50% inactivation)
In short: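 Partially inactivated channels (20–50% inactivation at holding potential) were probed on automated patch clamp in stably transfected HEK293 cells, stepping to −10 mV for 20 msec every 10 s (0.1 Hz).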

Nav 1.5 = Nav 1.5 (Homo sapiens (Human), UniProt Q14524); experiment: Nav 1.5 in vitro assay, IonWorks Quattro (IWQ) population patch-clamp; conditions: HEK 293 cells stably transfected with Nav 1.5; 26th pulse to -20 mV
Sequence of Nav 1.5 (Q14524 whole entry): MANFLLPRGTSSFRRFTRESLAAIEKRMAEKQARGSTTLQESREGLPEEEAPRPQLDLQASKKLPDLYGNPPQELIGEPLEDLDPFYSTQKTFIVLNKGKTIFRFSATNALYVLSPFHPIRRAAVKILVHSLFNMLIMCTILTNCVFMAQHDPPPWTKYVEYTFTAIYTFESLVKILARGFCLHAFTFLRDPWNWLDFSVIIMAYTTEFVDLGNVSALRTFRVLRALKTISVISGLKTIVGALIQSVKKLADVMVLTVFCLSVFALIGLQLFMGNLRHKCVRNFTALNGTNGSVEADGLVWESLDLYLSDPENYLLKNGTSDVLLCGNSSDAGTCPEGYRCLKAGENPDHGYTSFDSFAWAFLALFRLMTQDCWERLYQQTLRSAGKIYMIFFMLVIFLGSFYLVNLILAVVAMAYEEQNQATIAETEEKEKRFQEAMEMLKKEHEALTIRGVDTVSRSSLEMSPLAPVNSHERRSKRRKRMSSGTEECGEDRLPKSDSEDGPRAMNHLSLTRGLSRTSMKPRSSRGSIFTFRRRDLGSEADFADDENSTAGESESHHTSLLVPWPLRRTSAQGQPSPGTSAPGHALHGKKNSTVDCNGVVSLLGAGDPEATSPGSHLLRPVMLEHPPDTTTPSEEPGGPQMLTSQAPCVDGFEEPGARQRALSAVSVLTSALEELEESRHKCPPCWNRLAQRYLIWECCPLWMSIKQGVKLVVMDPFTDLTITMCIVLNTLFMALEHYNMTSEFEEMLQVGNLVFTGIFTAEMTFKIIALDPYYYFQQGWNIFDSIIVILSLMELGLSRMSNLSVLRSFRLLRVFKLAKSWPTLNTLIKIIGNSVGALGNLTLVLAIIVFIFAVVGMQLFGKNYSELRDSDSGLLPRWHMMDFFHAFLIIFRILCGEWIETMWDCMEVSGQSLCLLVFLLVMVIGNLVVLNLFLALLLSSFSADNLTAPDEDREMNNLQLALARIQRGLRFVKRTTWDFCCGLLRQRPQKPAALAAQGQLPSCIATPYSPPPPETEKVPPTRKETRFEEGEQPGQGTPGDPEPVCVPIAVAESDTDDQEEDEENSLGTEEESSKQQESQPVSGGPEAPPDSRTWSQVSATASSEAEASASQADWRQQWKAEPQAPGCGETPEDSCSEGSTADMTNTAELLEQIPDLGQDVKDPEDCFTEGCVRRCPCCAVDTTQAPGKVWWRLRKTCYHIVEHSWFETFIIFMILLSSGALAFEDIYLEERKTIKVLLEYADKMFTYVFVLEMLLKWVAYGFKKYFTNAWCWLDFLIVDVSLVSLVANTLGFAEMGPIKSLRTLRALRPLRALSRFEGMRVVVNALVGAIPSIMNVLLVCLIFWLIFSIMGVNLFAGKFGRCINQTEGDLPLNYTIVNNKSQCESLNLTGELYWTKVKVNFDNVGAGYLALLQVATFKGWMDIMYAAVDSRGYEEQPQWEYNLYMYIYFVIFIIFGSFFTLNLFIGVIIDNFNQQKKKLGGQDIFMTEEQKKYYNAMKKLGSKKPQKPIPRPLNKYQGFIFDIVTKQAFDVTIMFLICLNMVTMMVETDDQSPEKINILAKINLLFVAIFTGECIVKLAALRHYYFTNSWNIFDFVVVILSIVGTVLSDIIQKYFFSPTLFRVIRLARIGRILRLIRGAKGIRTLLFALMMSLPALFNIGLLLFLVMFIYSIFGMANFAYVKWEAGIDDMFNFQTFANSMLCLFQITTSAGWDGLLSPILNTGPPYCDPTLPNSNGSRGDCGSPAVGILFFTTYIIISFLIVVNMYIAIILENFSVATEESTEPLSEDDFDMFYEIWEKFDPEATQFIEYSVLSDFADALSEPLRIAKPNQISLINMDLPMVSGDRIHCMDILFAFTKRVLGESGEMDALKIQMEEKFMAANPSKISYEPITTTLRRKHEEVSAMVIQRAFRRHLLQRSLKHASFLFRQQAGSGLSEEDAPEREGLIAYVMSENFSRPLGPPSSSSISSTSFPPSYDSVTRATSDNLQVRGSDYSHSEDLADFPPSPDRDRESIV

T1 sequence (Q15858 whole entry): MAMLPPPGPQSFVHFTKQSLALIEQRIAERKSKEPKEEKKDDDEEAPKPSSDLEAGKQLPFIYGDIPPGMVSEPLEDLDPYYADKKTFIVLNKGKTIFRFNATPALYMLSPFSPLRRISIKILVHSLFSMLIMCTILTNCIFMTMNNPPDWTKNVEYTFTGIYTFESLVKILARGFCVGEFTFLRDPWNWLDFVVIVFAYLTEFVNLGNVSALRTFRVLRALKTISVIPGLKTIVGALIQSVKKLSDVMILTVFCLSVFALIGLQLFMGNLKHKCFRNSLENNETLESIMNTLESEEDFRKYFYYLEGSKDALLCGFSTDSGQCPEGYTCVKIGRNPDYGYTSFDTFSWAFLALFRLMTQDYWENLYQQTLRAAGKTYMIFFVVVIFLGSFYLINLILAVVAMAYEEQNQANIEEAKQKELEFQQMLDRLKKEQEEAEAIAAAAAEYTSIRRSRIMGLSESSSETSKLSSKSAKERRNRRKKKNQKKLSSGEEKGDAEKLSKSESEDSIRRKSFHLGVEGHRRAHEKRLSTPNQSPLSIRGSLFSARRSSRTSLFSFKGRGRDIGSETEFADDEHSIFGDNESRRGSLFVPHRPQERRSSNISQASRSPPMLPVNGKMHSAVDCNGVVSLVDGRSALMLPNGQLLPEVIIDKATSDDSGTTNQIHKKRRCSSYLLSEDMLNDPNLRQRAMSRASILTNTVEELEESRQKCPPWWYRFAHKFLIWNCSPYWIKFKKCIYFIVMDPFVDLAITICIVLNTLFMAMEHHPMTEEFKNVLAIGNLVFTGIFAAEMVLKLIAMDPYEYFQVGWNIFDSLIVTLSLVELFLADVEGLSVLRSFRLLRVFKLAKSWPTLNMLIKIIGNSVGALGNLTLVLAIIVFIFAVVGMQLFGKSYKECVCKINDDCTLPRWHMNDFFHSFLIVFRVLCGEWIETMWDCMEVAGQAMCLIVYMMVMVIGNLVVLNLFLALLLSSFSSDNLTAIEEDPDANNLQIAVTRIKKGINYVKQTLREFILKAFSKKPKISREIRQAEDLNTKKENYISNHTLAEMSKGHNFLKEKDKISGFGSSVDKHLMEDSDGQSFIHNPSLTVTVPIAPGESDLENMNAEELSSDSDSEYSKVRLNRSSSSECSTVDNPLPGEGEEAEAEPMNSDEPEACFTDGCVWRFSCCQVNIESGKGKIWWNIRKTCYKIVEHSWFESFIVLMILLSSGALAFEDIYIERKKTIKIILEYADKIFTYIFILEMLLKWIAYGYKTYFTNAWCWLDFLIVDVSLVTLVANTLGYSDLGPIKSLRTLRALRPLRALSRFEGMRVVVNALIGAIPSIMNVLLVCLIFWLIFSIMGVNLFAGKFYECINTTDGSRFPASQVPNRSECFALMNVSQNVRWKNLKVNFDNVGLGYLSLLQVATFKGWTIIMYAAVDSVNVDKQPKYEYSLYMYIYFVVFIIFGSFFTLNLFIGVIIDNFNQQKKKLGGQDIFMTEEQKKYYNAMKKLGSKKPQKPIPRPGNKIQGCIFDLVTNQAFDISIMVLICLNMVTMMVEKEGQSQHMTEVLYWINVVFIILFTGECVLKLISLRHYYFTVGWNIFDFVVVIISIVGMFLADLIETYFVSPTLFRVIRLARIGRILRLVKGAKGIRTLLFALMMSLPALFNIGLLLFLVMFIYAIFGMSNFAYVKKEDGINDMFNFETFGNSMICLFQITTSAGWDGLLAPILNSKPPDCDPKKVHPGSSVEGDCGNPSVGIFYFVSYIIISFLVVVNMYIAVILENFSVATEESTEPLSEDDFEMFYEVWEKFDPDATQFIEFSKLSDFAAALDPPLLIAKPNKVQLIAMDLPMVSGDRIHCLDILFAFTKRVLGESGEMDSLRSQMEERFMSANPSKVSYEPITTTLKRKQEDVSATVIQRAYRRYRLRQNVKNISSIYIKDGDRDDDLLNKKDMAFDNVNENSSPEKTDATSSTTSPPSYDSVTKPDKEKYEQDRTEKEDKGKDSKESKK

Row | SMILES | IC50 (Nav 1.7 [1]) | IC50 (Nav 1.7 [2]) | IC50 (Nav 1.5)
1 | O=S(=O)(Nc1ccncn1)c1ccc2c(c1)OCCN2c1ccc(C(F)(F)F)cc1Cl [Example 32, 4-(2-Chloro-4-(Trifluoromethyl)Phenyl)-N-(Pyrimidin-4-Yl)-3,4-Dihydro-2H-Benzo[B][1,4]Oxazine-7-Sulfonamide] | 0.0725 µM | 0.534 µM | 4.77 µM
2 | O=S(=O)(Nc1ncns1)c1ccc2c(c1)OCCN2c1cccc2ncccc12 [Example 33, 4-(Quinolin-5-Yl)-N-(1,2,4-Thiadiazol-5-Yl)-3,4-Dihydro-2H-Benzo[B][1,4]Oxazine-7-Sulfonamide] | 0.141 µM | 1.19 µM | > 10 µM
3 | O=S(=O)(Nc1ncns1)c1ccc2c(c1)OCC(c1ccccc1)N2c1ccc(C(F)(F)F)cc1 (stereo not drawn) [Example 34, 3-Phenyl-N-(1,2,4-Thiadiazol-5-Yl)-4-(4-(Trifluoromethyl)Phenyl)-3,4-Dihydro-2H-Benzo[B][1,4]Oxazine-7-Sulfonamide] | 2.45 µM | 3.46 µM | > 10 µM
4 | O=S(=O)(Nc1ncns1)c1ccc2c(c1)OCCN2c1cccc(OC(F)(F)F)c1 [Example 35, N-(1,2,4-Thiadiazol-5-Yl)-4-(3-(Trifluoromethoxy)Phenyl)-3,4-Dihydro-2H-Benzo[B][1,4]Oxazine-7-Sulfonamide] | 0.0435 µM | 0.138 µM | > 10 µM
5 | O=S(=O)(Nc1ncns1)c1ccc2c(c1)OCCN2c1cccc2ccccc12 [Example 36, 4-(Naphthalen-1-Yl)-N-(1,2,4-Thiadiazol-5-Yl)-3,4-Dihydro-2H-Benzo[B][1,4]Oxazine-7-Sulfonamide] | 0.0315 µM | 0.145 µM | > 10 µM
6 | COc1ccc(N2CCOc3cc(S(=O)(=O)Nc4ncns4)ccc32)cc1 [Example 37, 4-(4-Methoxyphenyl)-N-(1,2,4-Thiadiazol-5-Yl)-3,4-Dihydro-2H-Benzo[B][1,4]Oxazine-7-Sulfonamide] | 0.207 µM | 2.2 µM | > 10 µM

More lines, main results first:

Row | IC50 (Nav 1.7 [1]) | IC50 (Nav 1.7 [2]) | SMILES | IC50 (Nav 1.5)
7 | 0.333 µM | 9.22 µM | COCCOc1ccc(N2CCOc3cc(S(=O)(=O)Nc4ncns4)ccc32)cc1 [Example 39, 4-(4-(2-Methoxyethoxy)Phenyl)-N-(1,2,4-Thiadiazol-5-Yl)-3,4-Dihydro-2H-Benzo[B][1,4]Oxazine-7-Sulfonamide] | > 10 µM
8 | 0.713 µM | 4.32 µM | O=S(=O)(Nc1nccs1)c1ccc2c(c1)OCCN2c1ccc(Cl)cc1 [Example 40, 4-(4-Chlorophenyl)-N-(Thiazol-2-Yl)-3,4-Dihydro-2H-Benzo[B][1,4]Oxazine-7-Sulfonamide] | > 10 µM
9 | 0.111 µM | 0.64 µM | O=S(=O)(Nc1nccs1)c1ccc2c(c1)OCCN2c1cccc(Cl)c1 [Example 41, 4-(3-Chlorophenyl)-N-(Thiazol-2-Yl)-3,4-Dihydro-2H-Benzo[B][1,4]Oxazine-7-Sulfonamide] | 4.93 µM
10 | 0.121 µM | 1.54 µM | Cn1nccc1-c1cc(C(F)(F)F)ccc1N1CCOc2cc(S(=O)(=O)Nc3nccs3)ccc21 [Example 42, 4-(2-(1-Methyl-1H-Pyrazol-5-Yl)-4-(Trifluoromethyl)Phenyl)-N-(Thiazol-2-Yl)-3,4-Dihydro-2H-Benzo[B][1,4]Oxazine-7-Sulfonamide] | > 10 µM
11 | 0.115 µM | 0.975 µM | O=S(=O)(Nc1nccs1)c1ccc2c(c1)OCCN2c1ccc(C(F)(F)F)cc1Br [Example 43, 4-(2-Bromo-4-(Trifluoromethyl)Phenyl)-N-(Thiazol-2-Yl)-3,4-Dihydro-2H-Benzo[B][1,4]Oxazine-7-Sulfonamide] | 1.85 µM
12 | 0.014 µM | 0.0687 µM | CN1CC=C(c2cc(C(F)(F)F)ccc2N2CCOc3cc(S(=O)(=O)Nc4nccs4)ccc32)CC1 [Example 44, 4-(2-(1-Methyl-1,2,3,6-Tetrahydropyridin-4-Yl)-4-(Trifluoromethyl)Phenyl)-N-(Thiazol-2-Yl)-3,4-Dihydro-2H-Benzo[B][1,4]Oxazine-7-Sulfonamide] | 3.59 µM
